Experimental data from ChEMBL document CHEMBL1201862, “PubChem BioAssay data set” (2004).
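Compound exposure: 48 hours, 5 concentrations, 96-well plates. GI50: concentration for 50% inhibition of growth.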 Active and inactive are the calls of the source. Cut-off read from the data, not from the text of the source: active = GI50 up to about 1.1 µM and inactive = higher.

Tests used:
Assay in all cases: growth of human tumour cells (NCI), 48 h
[1] = test system: SK-MEL-5
[2] = test system: MDA-N
[3] = test system: HOP-62
[4] = test system: UO-31
[5] = test system: SK-MEL-28
[6] = test system: SNB-75
[7] = test system: SF-539
[8] = test system: K562
[9] = test system: NCI-H23
[10] = test system: SN12C
[11] = test system: OVCAR-8
[12] = test system: NCI-H460
[13] = test system: ACHN
[14] = test system: 786-0
[15] = test system: LOX IMVI
[16] = test system: NCI-H226
[17] = test system: HT-29
[18] = test system: T47D
[19] = test system: HOP-92
[20] = test system: RXF 393
[21] = test system: Malme-3M
[22] = test system: CAKI-1
[23] = test system: SNB-19
[24] = test system: A498
[25] = test system: RPMI-8226
[26] = test system: OVCAR-3
[27] = test system: HCT-116
[28] = test system: IGROV-1
[29] = test system: SF-268
[30] = test system: SK-OV-3
[31] = test system: NCI/ADR-RES
[32] = test system: U-251
[33] = test system: PC-3
[34] = test system: SW-620
[35] = test system: SK-MEL-2
[36] = test system: KM12
[37] = test system: COLO 205
[38] = test system: UACC-62
[39] = test system: SR
[40] = test system: CCRF-CEM
[41] = test system: A549
[42] = test system: OVCAR-4
[43] = test system: EKVX
[44] = test system: BT-549
[45] = test system: NCI-H522
[46] = test system: HCC 2998
[47] = test system: TK-10
[48] = test system: Hs-578T
[49] = test system: M14
[50] = test system: HCT-15
[51] = test system: MDA-MB-231
[52] = test system: UACC-257
[53] = test system: DU-145
[54] = test system: OVCAR-5
[55] = test system: MDA-MB-435
[56] = test system: SF-295
[57] = test system: MCF7
[58] = test system: MOLT-4
[59] = test system: HL-60

## CC1=NOC(=O)/C1=C/c1ccc2c(c1)OCO2
[1]
  GI50: 34.1 µM (inactive)
[2]
  GI50: 32.3 µM (inactive)
[3]
  GI50: 19.2 µM (inactive)
[4]
  GI50: 21.1 µM (inactive)
[5]
  GI50: 30.8 µM (inactive)
[6]
  GI50: 22.1 µM (inactive)
[7]
  GI50: 24.3 µM (inactive)
[8]
  GI50: 55.3 µM (inactive)
[9]
  GI50: 37.3 µM (inactive)
[10]
  GI50: 25.4 µM (inactive)
[11]
  GI50: 25.4 µM (inactive)
[12]
  GI50: 35.1 µM (inactive)
[13]
  GI50: 19.1 µM (inactive)
[14]
  GI50: 21.9 µM (inactive)
[15]
  GI50: 19 µM (inactive)
[16]
  GI50: 21.6 µM (inactive)
[17]
  GI50: 24.4 µM (inactive)
[18]
  GI50: > 100 µM (inactive)
[19]
  GI50: 30.2 µM (inactive)
[20]
  GI50: 16 µM (inactive)
[21]
  GI50: 43.6 µM (inactive)
[22]
  GI50: 17.3 µM (inactive)
[23]
  GI50: 30.7 µM (inactive)
[24]
  GI50: 26.3 µM (inactive)
[25]
  GI50: 21.8 µM (inactive)
[26]
  GI50: 30.2 µM (inactive)
[27]
  GI50: 34 µM (inactive)
[28]
  GI50: 25.2 µM (inactive)
[29]
  GI50: 34.8 µM (inactive)
[30]
  GI50: > 100 µM (inactive)
[31]
  GI50: 39.5 µM (inactive)
[32]
  GI50: 18.7 µM (inactive)
[33]
  GI50: 21 µM (inactive)
[34]
  GI50: 21.1 µM (inactive)
[35]
  GI50: 19.6 µM (inactive)
[36]
  GI50: 19.1 µM (inactive)
[37]
  GI50: 17.7 µM (inactive)
[38]
  GI50: 21.5 µM (inactive)
[39]
  GI50: 15.9 µM (inactive)
[40]
  GI50: 20.7 µM (inactive)
[41]
  GI50: 61.8 µM (inactive)
[42]
  GI50: 63.1 µM (inactive)
[43]
  GI50: 77.3 µM (inactive)
[44]
  GI50: 24 µM (inactive)
[45]
  GI50: 38.5 µM (inactive)
[46]
  GI50: 28.9 µM (inactive)
[47]
  GI50: 39.2 µM (inactive)
[48]
  GI50: 39.5 µM (inactive)
[49]
  GI50: 35.3 µM (inactive)
[50]
  GI50: 20.8 µM
[51]
  GI50: 24.5 µM (inactive)
[52]
  GI50: 73.5 µM (inactive)
[53]
  GI50: 25.1 µM (inactive)
[54]
  GI50: 37.1 µM (inactive)
[55]
  GI50: 23.4 µM (inactive)
[56]
  GI50: 26.7 µM (inactive)
[57]
  GI50: 30.2 µM (inactive)

## C[N+]1(Cc2ccc(Cl)c(Cl)c2)CCCC1C1CCCN(Cc2ccc(Cl)c(Cl)c2)C1 (centres undefined)
[1]
  GI50: 32.2 µM (inactive)
[2]
  GI50: > 100 µM (inactive)
[3]
  GI50: > 100 µM (inactive)
[4]
  GI50: > 100 µM (inactive)
[5]
  GI50: > 100 µM (inactive)
[6]
  GI50: > 100 µM (inactive)
[58]
  GI50: > 100 µM (inactive)
[7]
  GI50: > 100 µM (inactive)
[8]
  GI50: 52.4 µM (inactive)
[9]
  GI50: > 100 µM (inactive)
[10]
  GI50: > 100 µM (inactive)
[11]
  GI50: > 100 µM (inactive)
[12]
  GI50: > 100 µM (inactive)
[13]
  GI50: > 100 µM (inactive)
[14]
  GI50: > 100 µM (inactive)
[15]
  GI50: > 100 µM (inactive)
[17]
  GI50: > 100 µM (inactive)
[18]
  GI50: > 100 µM (inactive)
[19]
  GI50: > 100 µM (inactive)
[20]
  GI50: > 100 µM (inactive)
[21]
  GI50: 82.4 µM (inactive)
[22]
  GI50: > 100 µM (inactive)
[23]
  GI50: > 100 µM (inactive)
[24]
  GI50: > 100 µM (inactive)
[25]
  GI50: > 100 µM (inactive)
[26]
  GI50: > 100 µM (inactive)
[27]
  GI50: > 100 µM (inactive)
[28]
  GI50: 70 µM (inactive)
[29]
  GI50: > 100 µM (inactive)
[30]
  GI50: > 100 µM (inactive)
[31]
  GI50: > 100 µM (inactive)
[32]
  GI50: > 100 µM (inactive)
[33]
  GI50: > 100 µM (inactive)
[34]
  GI50: > 100 µM (inactive)
[35]
  GI50: > 100 µM (inactive)
[36]
  GI50: > 100 µM (inactive)
[37]
  GI50: > 100 µM (inactive)
[38]
  GI50: > 100 µM (inactive)
[39]
  GI50: > 100 µM (inactive)
[41]
  GI50: > 100 µM (inactive)
[42]
  GI50: > 100 µM (inactive)
[43]
  GI50: 46 µM (inactive)
[44]
  GI50: > 100 µM (inactive)
[45]
  GI50: > 100 µM (inactive)
[46]
  GI50: > 100 µM (inactive)
[47]
  GI50: > 100 µM (inactive)
[48]
  GI50: > 100 µM (inactive)
[49]
  GI50: > 100 µM (inactive)
[50]
  GI50: > 100 µM
[51]
  GI50: > 100 µM (inactive)
[52]
  GI50: > 100 µM (inactive)
[53]
  GI50: > 100 µM (inactive)
[54]
  GI50: > 100 µM (inactive)
[55]
  GI50: > 100 µM (inactive)
[56]
  GI50: > 100 µM (inactive)
[57]
  GI50: > 100 µM (inactive)

## C1COC(NC(C2CC2)C2CC2)=N1 [RILMENIDINE]
[1]
  GI50: > 100 µM (inactive)
[2]
  GI50: > 100 µM (inactive)
[4]
  GI50: > 100 µM (inactive)
[5]
  GI50: > 100 µM (inactive)
[6]
  GI50: 31.1 µM (inactive)
[58]
  GI50: > 100 µM (inactive)
[7]
  GI50: > 100 µM (inactive)
[8]
  GI50: > 100 µM (inactive)
[9]
  GI50: > 100 µM (inactive)
[11]
  GI50: > 100 µM (inactive)
[12]
  GI50: > 100 µM (inactive)
[13]
  GI50: > 100 µM (inactive)
[14]
  GI50: > 100 µM (inactive)
[15]
  GI50: > 100 µM (inactive)
[16]
  GI50: > 100 µM (inactive)
[17]
  GI50: > 100 µM (inactive)
[18]
  GI50: > 100 µM (inactive)
[19]
  GI50: > 100 µM (inactive)
[20]
  GI50: > 100 µM (inactive)
[21]
  GI50: > 100 µM (inactive)
[22]
  GI50: > 100 µM (inactive)
[23]
  GI50: > 100 µM (inactive)
[24]
  GI50: > 100 µM (inactive)
[25]
  GI50: > 100 µM (inactive)
[26]
  GI50: > 100 µM (inactive)
[27]
  GI50: > 100 µM (inactive)
[28]
  GI50: > 100 µM (inactive)
[30]
  GI50: > 100 µM (inactive)
[31]
  GI50: > 100 µM (inactive)
[59]
  GI50: > 100 µM (inactive)
[32]
  GI50: > 100 µM (inactive)
[33]
  GI50: > 100 µM (inactive)
[34]
  GI50: > 100 µM (inactive)
[35]
  GI50: > 100 µM (inactive)
[36]
  GI50: > 100 µM (inactive)
[37]
  GI50: > 100 µM (inactive)
[38]
  GI50: > 100 µM (inactive)
[39]
  GI50: > 100 µM (inactive)
[40]
  GI50: > 100 µM (inactive)
[41]
  GI50: > 100 µM (inactive)
[42]
  GI50: > 100 µM (inactive)
[43]
  GI50: > 100 µM (inactive)
[44]
  GI50: > 100 µM (inactive)
[45]
  GI50: > 100 µM (inactive)
[46]
  GI50: > 100 µM (inactive)
[47]
  GI50: > 100 µM (inactive)
[48]
  GI50: > 100 µM (inactive)
[49]
  GI50: > 100 µM (inactive)
[50]
  GI50: > 100 µM
[51]
  GI50: > 100 µM (inactive)
[52]
  GI50: > 100 µM (inactive)
[53]
  GI50: > 100 µM (inactive)
[54]
  GI50: > 100 µM (inactive)
[55]
  GI50: > 100 µM (inactive)
[56]
  GI50: > 100 µM (inactive)
[57]
  GI50: > 100 µM (inactive)
